Experimental data from ChEMBL document CHEMBL1132638, “New (sulfonyloxy)piperazinyldibenzazepines as potential atypical antipsychotics: chemistry and pharmacological evaluation” (J Med Chem, 1999).
pIC50: −log10 of the molar value.

Experiments:
[1] = Partition coefficient (logP); assay type: physicochemical; conditions: octanol/water
D(4) dopamine receptor [2] = molecular target: T1, D(4) dopamine receptor (Homo sapiens, UniProt P21917); test: Binding affinity towards human D4.2 receptor
T1 sequence (P21917 whole entry): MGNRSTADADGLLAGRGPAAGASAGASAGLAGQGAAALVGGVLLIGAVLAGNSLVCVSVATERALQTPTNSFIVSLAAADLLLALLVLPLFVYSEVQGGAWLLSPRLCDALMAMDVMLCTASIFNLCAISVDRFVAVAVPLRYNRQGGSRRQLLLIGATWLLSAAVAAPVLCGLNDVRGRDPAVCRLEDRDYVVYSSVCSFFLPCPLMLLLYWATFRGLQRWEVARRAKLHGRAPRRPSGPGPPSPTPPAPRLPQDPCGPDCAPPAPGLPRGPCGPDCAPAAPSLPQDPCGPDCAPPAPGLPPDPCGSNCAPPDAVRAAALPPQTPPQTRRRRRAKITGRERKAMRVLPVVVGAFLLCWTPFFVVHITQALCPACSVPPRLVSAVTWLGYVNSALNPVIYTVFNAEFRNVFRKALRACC

Mus musculus [3] = test: Inhibition of apomorphine induced climbing affects in mice by administering the compound perorally in mice; assay type: functional
Mus musculus [4] = test: Inhibition of apomorphine induced climbing affects in mice by administering the compound subcutaneously in mice; assay type: functional; conditions: sc
[5] = molecular target: T2, Muscarinic acetylcholine receptor M1 (Homo sapiens, UniProt P11229); test: Inhibition of binding of 1.0 nM [3H]pirenzepine to cloned human Muscarinic acetylcholine receptor M1 expressed in membranes from CHO-K1 cells; assay type: cell-based
T2 sequence (P11229 whole entry): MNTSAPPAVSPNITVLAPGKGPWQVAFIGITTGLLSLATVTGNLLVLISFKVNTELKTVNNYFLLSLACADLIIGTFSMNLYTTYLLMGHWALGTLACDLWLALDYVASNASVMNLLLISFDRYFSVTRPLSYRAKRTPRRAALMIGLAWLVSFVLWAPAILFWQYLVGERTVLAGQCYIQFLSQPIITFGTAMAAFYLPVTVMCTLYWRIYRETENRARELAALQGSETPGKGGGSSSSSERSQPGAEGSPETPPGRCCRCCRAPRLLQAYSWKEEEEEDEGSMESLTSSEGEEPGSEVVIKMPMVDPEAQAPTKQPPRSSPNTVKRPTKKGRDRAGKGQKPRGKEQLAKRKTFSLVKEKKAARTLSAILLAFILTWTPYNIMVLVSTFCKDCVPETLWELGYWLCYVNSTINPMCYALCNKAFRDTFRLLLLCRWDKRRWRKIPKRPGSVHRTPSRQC

Rattus norvegicus [6] = test: Compound is measured for inhibition of catalepsy in rat by peroral administration of compound; assay type: functional; conditions: po
Rattus norvegicus [7] = test: Inhibition of catalepsy in rat by subcutaneous administration of compound; assay type: functional; conditions: sc
[8] = Therapeutic ratio by Peroral dose of administration (quotient ED50 catalepsy/ED50 climbing); assay type: ADME, organism-based; conditions: in vivo, po; read-out: Therapeutic ratio
[9] = Delta ED50 value by Subcutaneous administration (ED50 catalepsy-ED50 Climbing); assay type: functional
[10] = Delta ED50 value by peroral administration (ED50 catalepsy-ED50 Climbing); assay type: functional
D(3) dopamine receptor = D(3) dopamine receptor (Homo sapiens, UniProt P35462)
D(3) dopamine receptor, sequence (P35462 whole entry): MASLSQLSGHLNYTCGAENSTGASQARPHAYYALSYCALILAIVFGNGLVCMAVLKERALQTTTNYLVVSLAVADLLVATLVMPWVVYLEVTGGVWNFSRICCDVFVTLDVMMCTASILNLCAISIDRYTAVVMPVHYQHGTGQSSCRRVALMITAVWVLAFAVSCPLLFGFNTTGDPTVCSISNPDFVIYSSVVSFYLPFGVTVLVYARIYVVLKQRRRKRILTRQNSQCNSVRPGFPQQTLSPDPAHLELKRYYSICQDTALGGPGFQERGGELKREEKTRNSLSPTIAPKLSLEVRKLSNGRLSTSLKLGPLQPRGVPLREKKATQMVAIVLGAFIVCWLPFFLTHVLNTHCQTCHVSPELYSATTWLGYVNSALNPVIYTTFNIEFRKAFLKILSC
Description: Binding affinity towards human Dopamine receptor D3

in vivo = conditions: sc
Description: Therapeutic ratio by Subcutaneous dose of administration (quotient ED50 catalepsy/ED50 climbing)

[11] = molecular target: 5-hydroxytryptamine receptor 2A (Rattus norvegicus, UniProt P14842); test: biochemical
5-hydroxytryptamine receptor 2A, sequence (P14842 whole entry): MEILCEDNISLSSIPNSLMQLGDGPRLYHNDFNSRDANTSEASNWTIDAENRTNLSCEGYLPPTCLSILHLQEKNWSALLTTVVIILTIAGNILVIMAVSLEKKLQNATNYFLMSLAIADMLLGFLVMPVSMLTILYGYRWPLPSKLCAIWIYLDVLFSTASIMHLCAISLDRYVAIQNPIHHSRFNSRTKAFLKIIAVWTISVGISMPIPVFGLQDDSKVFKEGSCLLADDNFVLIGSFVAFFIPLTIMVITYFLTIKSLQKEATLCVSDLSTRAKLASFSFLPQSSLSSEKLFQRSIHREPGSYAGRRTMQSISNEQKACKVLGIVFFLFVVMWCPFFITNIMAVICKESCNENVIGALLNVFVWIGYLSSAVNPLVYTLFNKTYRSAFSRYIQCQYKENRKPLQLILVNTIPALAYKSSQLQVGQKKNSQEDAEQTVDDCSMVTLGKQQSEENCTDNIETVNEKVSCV
Description: Binding affinity towards 5-hydroxytryptamine 2A receptor from rat frontal cortex using [3H]ketanserin as radioligand

[12] = molecular target: T3, Adrenergic receptor alpha-1 (Rattus norvegicus, UniProt P15823+P23944+P43140); test: Binding affinity towards alpha-1 adrenergic receptor from rat brain membranes using [3H]prazosin as radioligand
T3 sequence (P15823 whole entry): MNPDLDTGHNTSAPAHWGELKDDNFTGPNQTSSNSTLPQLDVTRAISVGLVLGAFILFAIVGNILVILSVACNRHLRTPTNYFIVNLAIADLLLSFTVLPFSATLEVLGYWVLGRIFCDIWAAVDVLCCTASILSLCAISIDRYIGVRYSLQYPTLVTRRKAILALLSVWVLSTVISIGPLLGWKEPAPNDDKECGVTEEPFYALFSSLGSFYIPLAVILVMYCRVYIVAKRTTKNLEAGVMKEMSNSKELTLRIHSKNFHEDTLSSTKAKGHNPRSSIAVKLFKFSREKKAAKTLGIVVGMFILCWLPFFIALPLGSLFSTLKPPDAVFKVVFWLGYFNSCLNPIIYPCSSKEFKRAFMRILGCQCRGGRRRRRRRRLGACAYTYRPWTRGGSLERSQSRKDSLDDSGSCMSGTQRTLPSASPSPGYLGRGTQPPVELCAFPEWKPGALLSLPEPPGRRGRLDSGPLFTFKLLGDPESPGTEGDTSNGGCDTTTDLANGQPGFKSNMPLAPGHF
T3 sequence (P23944 whole entry): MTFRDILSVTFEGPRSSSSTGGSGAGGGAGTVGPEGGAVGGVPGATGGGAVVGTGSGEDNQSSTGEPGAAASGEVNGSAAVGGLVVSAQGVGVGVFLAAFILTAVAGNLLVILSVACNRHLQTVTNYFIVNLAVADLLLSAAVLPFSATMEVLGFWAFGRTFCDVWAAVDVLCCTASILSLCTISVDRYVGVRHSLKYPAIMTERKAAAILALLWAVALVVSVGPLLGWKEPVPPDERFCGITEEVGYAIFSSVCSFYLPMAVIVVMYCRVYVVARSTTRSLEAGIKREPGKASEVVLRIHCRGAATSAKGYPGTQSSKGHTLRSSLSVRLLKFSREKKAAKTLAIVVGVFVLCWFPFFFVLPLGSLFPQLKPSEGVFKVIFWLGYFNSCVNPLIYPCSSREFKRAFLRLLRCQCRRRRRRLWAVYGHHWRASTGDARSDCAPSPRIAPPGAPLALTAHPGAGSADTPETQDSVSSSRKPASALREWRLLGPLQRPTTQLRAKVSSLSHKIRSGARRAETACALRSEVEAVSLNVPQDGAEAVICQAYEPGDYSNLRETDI
T3 sequence (P43140 whole entry): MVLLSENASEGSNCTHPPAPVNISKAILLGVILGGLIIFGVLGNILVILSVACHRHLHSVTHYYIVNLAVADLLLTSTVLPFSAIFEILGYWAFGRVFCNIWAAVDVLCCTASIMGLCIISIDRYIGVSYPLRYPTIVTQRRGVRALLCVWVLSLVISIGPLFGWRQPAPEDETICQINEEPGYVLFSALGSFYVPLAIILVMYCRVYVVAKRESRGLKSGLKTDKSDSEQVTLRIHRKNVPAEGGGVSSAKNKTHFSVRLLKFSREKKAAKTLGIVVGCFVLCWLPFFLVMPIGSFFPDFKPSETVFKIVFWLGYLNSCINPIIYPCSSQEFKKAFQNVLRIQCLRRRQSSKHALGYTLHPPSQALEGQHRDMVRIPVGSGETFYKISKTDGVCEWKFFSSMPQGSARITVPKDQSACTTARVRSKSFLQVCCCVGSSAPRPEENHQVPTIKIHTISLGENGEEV

[13] = molecular target: T4, 5-hydroxytryptamine receptor 2C (Rattus norvegicus, UniProt P08909)
T4 sequence (P08909 whole entry): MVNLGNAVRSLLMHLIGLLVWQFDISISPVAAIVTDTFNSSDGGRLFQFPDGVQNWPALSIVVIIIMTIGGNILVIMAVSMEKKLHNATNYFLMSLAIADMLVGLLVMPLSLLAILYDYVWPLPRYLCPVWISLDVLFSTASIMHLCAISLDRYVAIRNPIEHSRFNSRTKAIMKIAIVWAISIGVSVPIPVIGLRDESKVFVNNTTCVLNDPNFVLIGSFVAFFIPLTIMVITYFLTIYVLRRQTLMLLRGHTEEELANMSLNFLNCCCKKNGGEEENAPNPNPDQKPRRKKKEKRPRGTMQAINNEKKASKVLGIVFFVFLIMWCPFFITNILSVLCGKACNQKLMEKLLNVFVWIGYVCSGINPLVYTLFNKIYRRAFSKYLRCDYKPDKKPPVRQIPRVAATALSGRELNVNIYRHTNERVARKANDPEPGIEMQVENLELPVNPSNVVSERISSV
Description: Binding affinity towards 5-HT2C receptor from rat using [3H]mesulergine as radioligand

D(1A) dopamine receptor = D(1A) dopamine receptor (Rattus norvegicus, UniProt P18901); test: biochemical
D(1A) dopamine receptor, sequence (P18901 whole entry): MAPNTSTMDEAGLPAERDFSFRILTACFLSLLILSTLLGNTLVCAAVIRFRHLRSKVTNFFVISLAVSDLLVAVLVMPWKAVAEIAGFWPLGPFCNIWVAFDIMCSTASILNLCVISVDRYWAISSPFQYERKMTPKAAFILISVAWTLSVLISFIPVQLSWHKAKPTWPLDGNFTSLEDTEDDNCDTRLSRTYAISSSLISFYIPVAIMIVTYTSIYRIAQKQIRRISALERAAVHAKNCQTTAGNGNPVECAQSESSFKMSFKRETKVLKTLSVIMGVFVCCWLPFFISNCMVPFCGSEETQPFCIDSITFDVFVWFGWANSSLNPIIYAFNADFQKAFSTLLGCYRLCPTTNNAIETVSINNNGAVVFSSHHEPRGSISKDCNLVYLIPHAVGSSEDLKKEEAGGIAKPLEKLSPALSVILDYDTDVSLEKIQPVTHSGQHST
Description: Binding affinity towards D1 CNS receptor of rat corpus striatum using [3H]SCH-23390 as radioligand

Mus musculus [14] = test: Compound is measured for inhibition of apomorphine induced climbing affects in mice by administering the compound subcutaneously (sc) in mice; assay type: functional
[15] = Antipsychotic activity was determined from subcutaneous administration of compound in mice (ED50 catalepsy-ED50 Climbing); assay type: functional
Rattus norvegicus [16] = organism: Rattus norvegicus; test: Ex vivo accumulation of L-DOPA was measured in striatum of rats
[17] = molecular target: T3, Adrenergic receptor alpha-1; test: In vitro binding affinity towards Alpha-1 adrenergic receptor by the displacement of [3H]prazosin radioligand in rat cortical homogenates
D(4) dopamine receptor [18] = molecular target: T1, D(4) dopamine receptor; test: Compound was tested in vitro for its binding affinity towards human Dopamine receptor D4.2
Rattus norvegicus [19] = test: Compound is measured for inhibition of catalepsy in rats by peroral administration of compound; assay type: functional; conditions: po
Rattus norvegicus [20] = test: Compound is measured for inhibition of catalepsy in rats by subcutaneous administration of compound; assay type: functional; conditions: sc
[21] = Mus musculus, po, read-out: ED50

logP [1]	pIC50 (D(4) dopamine receptor [2])	pIC50 [5]	pIC50 (D(3) dopamine receptor)	Compound	ED50 (Mus musculus [3]; [21])	ED50 (Mus musculus [4])	ED50 (Rattus norvegicus [6])	ED50 (Rattus norvegicus [7])	Delta ED50 [9]	selectivity ratio (in vivo)	other results
3.58	6.92	< 6.00	7.28	CN1CCN(C2=Nc3ccccc3Nc3ccc(OS(=O)(=O)C(F)(F)F)cc32)CC1	11 mg/kg	2.1 mg/kg	> 100 mg/kg	> 44 mg/kg	>41.9 mg/kg	> 20	selectivity ratio [8]: > 9; Delta ED50 [10]: >89 mg/kg; pIC50 [11]: 7.37
3.98	–	–	–	O=C(CCCN1CCC(O)(c2ccc(Cl)cc2)CC1)c1ccc(F)cc1 [HALOPERIDOL]	–	0.1 mg/kg	1.5 mg/kg	0.25 mg/kg	–	–	ED50 (Rattus norvegicus [16]): 0.1 mg/kg
3.48	6.96	–	6.92	CN1CCN(C2=Nc3ccccc3Nc3ccc(Cl)cc32)CC1 [ISOCLOZAPINE]	–	1.7 mg/kg	–	2 mg/kg	0.3 mg/kg	–	–

The remaining lines, values behind:

Compound	logP [1]	pIC50 (D(4) dopamine receptor [2])	pIC50 [5]	pIC50 (D(3) dopamine receptor)	ED50 (Mus musculus [3]; [21])	ED50 (Mus musculus [4])	ED50 (Rattus norvegicus [6])	ED50 (Rattus norvegicus [7])	Delta ED50 [9]	selectivity ratio (in vivo)	other results
COc1ccc2c(c1)C(N1CCN(C)CC1)=Nc1ccccc1N2	2.71	–	–	–	–	–	–	–	–	–	–
COc1ccc2c(c1)N=C(N1CCN(C)CC1)c1ccccc1N2	2.71	–	–	–	–	–	–	–	–	–	–
CN1CCN(C2=Nc3ccccc3Sc3ccc(OS(=O)(=O)C(F)(F)F)cc32)CC1	4.04	6.24	6.34	8.10	–	2.6 mg/kg	–	30 mg/kg	27.4 mg/kg	11.5	IC50 [12]: 3.6 nM; pIC50 [13]: 6.55; pIC50 [11]: 6.96; pIC50 (D(1A) dopamine receptor): 7.00
CN1CCN(C2=Nc3ccccc3Sc3ccc(Cl)cc32)CC1 [CLOTHIAPINE]	–	–	–	–	–	–	–	0.72 mg/kg	–	2.7	ED50 (Mus musculus [14]): 0.27 mg/kg; Delta ED50 [15]: 0.45 mg/kg
CN1CCN(C2=Nc3cc(Cl)ccc3Nc3ccccc32)CC1 [CLOZAPINE]	3.48	–	–	–	17 mg/kg	5.6 mg/kg	> 100 mg/kg	> 32.6 mg/kg	–	–	ED50 (Rattus norvegicus [16]): 17 mg/kg
CN1CCN(C2=Nc3ccccc3Oc3ccc(Cl)cc32)CC1 [LOXAPINE]	–	–	5.26	7.66	0.04 mg/kg	–	–	–	–	–	IC50 [17]: 18 nM; pIC50 (D(4) dopamine receptor [18]): 7.85; ED50 (Mus musculus [3]): 0.04 mg/kg; ED50 (Rattus norvegicus [19]): < 1 mg/kg; ED50 (Rattus norvegicus [20]): 0.35 mg/kg
